Results published in PMC8881573, “Inhibition of SRP-dependent protein secretion by the bacterial alarmone (p)ppGpp” (Nature Communications, 2022).
Values joined by “and” are separate entries in the source; they are usually repeats but may differ in a detail not shown here. Equal entries are not always repeated.

Key:
[1] = target: T1, (Ec)Ffh-NG (Escherichia coli, UniProt P0AGD7); experiment: Isothermal titration calorimetry (ITC) of nucleotide binding; set-up: species or system E. coli
T1 construct: purified NG domains of (Ec)Ffh, (Ec)FtsY and (Bs)Ffh; His6 (C); made in house; host or cells: E. coli BL21 (DE3)
T1 sequence (P0AGD7 1-296): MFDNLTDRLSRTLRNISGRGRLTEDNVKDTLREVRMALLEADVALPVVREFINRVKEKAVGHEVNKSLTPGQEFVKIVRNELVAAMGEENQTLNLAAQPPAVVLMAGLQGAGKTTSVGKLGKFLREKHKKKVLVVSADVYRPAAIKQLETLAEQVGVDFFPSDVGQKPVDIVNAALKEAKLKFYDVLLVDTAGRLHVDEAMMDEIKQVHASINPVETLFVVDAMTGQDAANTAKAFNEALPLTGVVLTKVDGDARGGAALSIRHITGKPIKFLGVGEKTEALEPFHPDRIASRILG
Procedure: (§1) Ligands and proteins (purified NG domains of (Ec)Ffh, (Ec)FtsY and (Bs)Ffh) were diluted with a buffer containing 20 mM HEPES-Na (pH 7.5), 200 mM NaCl, 20 mM MgCl2 and 20 mM KCl. The NG domains of (Ec)Ffh, (Ec)FtsY and (Bs)Ffh were titrated in the sample-cell at a nominal concentration of 25 µM each. The nucleotides GDP, GTP, ppGpp and pppGpp (Jena Bioscience, Germany) were placed in the syringe and their concentrations were predetermined by absorbance at 252 nm to saturate the protein samples during the titrations. All the measurements were performed at 25 °C with the instrument MicroCal PEAQ-ITC (©Malvern Panalytical) with a method consisting of 13 injections (first 0.4 µL, and the rest 3 µL each) and 150 s of spacing. The raw data (see source) were processed with the MicroCal PEAQ-ITC Analysis Software (©Malvern Panalytical) using the “one set of sites” models.

[2] = target: T2, (Bs)Ffh-NG (Bacillus subtilis, UniProt P37105); experiment: as above; set-up: species or system B. subtilis; details: NG domain, 25 °C, one set of sites model
T2 construct: purified NG domains of (Ec)Ffh, (Ec)FtsY and (Bs)Ffh; His6 (N); made in house; host or cells: E. coli Rosetta pLysS
T2 sequence (P37105 1-297 limits assumed): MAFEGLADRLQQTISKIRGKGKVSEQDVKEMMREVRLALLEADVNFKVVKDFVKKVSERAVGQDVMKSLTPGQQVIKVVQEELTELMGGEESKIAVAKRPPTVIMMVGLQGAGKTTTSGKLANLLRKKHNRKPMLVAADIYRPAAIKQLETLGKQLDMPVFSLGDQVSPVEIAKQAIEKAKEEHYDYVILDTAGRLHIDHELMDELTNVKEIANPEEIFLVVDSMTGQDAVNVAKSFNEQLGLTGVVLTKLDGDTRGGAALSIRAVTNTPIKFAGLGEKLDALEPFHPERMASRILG
Procedure: as §1

[3] = target: T3, (Ec)FtsY-NG (Escherichia coli, UniProt P10121); experiment: Microscale thermophoresis (MST) ligand binding; set-up: species or system E. coli; details: NG domain labeled with NT 647, 21 °C
T3 construct: purified NG domains of (Ec)Ffh, (Ec)FtsY and (Bs)Ffh; His6 (C); made in house; host or cells: E. coli BL21 (DE3)
T3 sequence (P10121 197-497): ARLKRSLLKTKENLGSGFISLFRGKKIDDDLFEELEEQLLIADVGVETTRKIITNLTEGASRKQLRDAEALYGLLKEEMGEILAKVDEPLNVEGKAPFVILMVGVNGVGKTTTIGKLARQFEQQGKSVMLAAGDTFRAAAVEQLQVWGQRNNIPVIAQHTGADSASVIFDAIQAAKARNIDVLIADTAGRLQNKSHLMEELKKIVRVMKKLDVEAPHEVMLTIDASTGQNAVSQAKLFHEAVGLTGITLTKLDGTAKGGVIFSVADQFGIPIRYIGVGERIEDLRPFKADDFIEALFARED
Procedure: (§2) Ligand binding assays with purified NG domains of (Ec)Ffh, (Ec)FtsY and (Bs)Ffh proteins were carried out by microscale thermophoresis (MST)[80]. All experiments were performed on a Monolith NT.115 (NanoTemper Technologies GmbH, Munich, Germany; software: NanoTemper Control Version 2.0.2.29) at 21 °C (red LED power was set to 50–100% and infrared laser power to 75%). After labeling of primary amines within (Ec)Ffh, (Ec)FtsY, and (Bs)Ffh (50 µM each) with the dye NT 647 (according to the manufacturers protocol), the proteins were re-buffered in SEC buffer containing 20 mM HEPES-Na, 20 mM KCl, 20 mM MgCl2, 200 mM NaCl (final pH 7.5), 10 mg ml^−1 BSA and 0.007% Tween. Two-hundred nanomolar of (Ec)Ffh, (Ec)FtsY, and (Bs)Ffh were titrated with GDP, GTP, ppGpp, and pppGpp starting from a concentration ranging between 0.75 and 3 mM, respectively. At least six independent MST experiments per ligand and protein were recorded at 680 nm and analyzed using NanoTemper Analysis version 1.5.37 and 1.2.009, and Origin8G software suits.

[4] = target: T1, (Ec)Ffh-NG; experiment: Microscale thermophoresis (MST) ligand binding; set-up: species or system E. coli; details: NG domain labeled with NT 647, 21 °C
Procedure: as §2

[5] = target: T2, (Bs)Ffh-NG; experiment: Microscale thermophoresis (MST) ligand binding; set-up: species or system B. subtilis; details: NG domain labeled with NT 647, 21 °C
Procedure: as §2

[6] = target: T3, (Ec)FtsY-NG; experiment: Isothermal titration calorimetry (ITC) of nucleotide binding; set-up: species or system E. coli; details: NG domain, 25 °C, one set of sites model
Procedure: as §1

SMILES | Kd [1] | Kd [2] | Kd ([3]; (Ec)FtsY KD MST) | Kd [4] | Kd [5] | Kd [6] | Kd ([3]; read-out: (Ec)FtsY KD MST)
Nc1nc2c(ncn2[C@@H]2O[C@H](COP(=O)(O)OP(=O)(O)OP(=O)(O)O)[C@@H](O)[C@H]2O)c(=O)[nH]1 [GTP] | 0.7 ± 0.5 µM | 0.6 ± 0.5 µM | 63.8 µM | 62.3 µM | 30.3 µM | – | –
Nc1nc2c(ncn2[C@@H]2O[C@H](COP(=O)(O)OP(=O)(O)O)[C@@H](O)[C@H]2O)c(=O)[nH]1 [GDP] | 2.2 ± 0.6 µM | 1.2 ± 0.7 µM | – | 7.9 µM and 7.94 µM | 9.23 ± 0.99 µM | 9.8 ± 1.1 µM | 9.6 µM and 9.63 µM
